Data published in paper PMC5218480 (PLoS ONE, 2017).

System: MV-4-11 cells
Assay: Gene expression microarray analysis (Affymetrix PrimeView) and GSEA
Format: cell-based, human
Design: RFU PODN (11730768_x_at) / Fold change /veh PODN (11730768_x_at) / RFU LINC00158 (11744669_a_at) / Fold change /veh LINC00158 (11744669_a_at) / RFU DUSP10 (11751237_a_at) / Fold change /veh DUSP10 (11751237_a_at) / RFU ID3 (11757404_x_at) / Fold change /veh ID3 (11757404_x_at) / RFU PLEKHG5 (11737974_s_at) / Fold change /veh PLEKHG5 (11737974_s_at) / RFU LRRC4B (11730491_at) / Fold change /veh LRRC4B (11730491_at) / RFU GIMAP4 (11747438_a_at) / Fold change /veh GIMAP4 (11747438_a_at) / RFU KRT8 (11758183_x_at) / Fold change /veh KRT8 (11758183_x_at) / RFU CNN1 (11734310_a_at) / Fold change /veh CNN1 (11734310_a_at) / RFU VPS37D (11726825_at) / Fold change /veh VPS37D (11726825_at) / RFU C10orf10 (11716522_x_at) / Fold change /veh C10orf10 (11716522_x_at) / RFU KIR2DL2 /// KIR2DL4 /// KIR2DL5A /// KIR2DL5B /// KIR2DS1 /// KIR2DS2 /// KIR2DS3 /// KIR2DS4 /// KIR3DL3 /// KIR3DL3 /// KIR3DS1 (11738374_at) / Fold change /veh KIR2DL2 /// KIR2DL4 /// KIR2DL5A /// KIR2DL5B /// KIR2DS1 /// KIR2DS2 /// KIR2DS3 /// KIR2DS4 /// KIR3DL3 /// KIR3DL3 /// KIR3DS1 (11738374_at) / RFU C1QL1 (11718748_at) / Fold change /veh C1QL1 (11718748_at) / RFU TMPRSS4 (11747572_a_at) / Fold change /veh TMPRSS4 (11747572_a_at) / RFU HAMP (11756126_x_at) / Fold change /veh HAMP (11756126_x_at) / RFU RNFT2 (11725882_a_at) / Fold change /veh RNFT2 (11725882_a_at) / RFU NR4A2 (11747474_a_at) / Fold change /veh NR4A2 (11747474_a_at) / RFU ABCC12 (11746883_a_at) / Fold change /veh ABCC12 (11746883_a_at) / RFU TMEM136 (11760407_x_at) / Fold change /veh TMEM136 (11760407_x_at) / RFU CLDN22 /// WWC2 (11732394_at) / Fold change /veh CLDN22 /// WWC2 (11732394_at) / RFU HLA-DPB1 (11760878_x_at) / Fold change /veh HLA-DPB1 (11760878_x_at) / RFU SPINT1 (11716480_a_at) / Fold change /veh SPINT1 (11716480_a_at) / RFU GAP43 (11754022_s_at) / Fold change /veh GAP43 (11754022_s_at) / RFU A4GNT (11735810_at) / Fold change /veh A4GNT (11735810_at) / RFU PRB3 (11715151_x_at) / Fold change /veh PRB3 (11715151_x_at) / RFU TUBB4B (11761932_at) / Fold change /veh TUBB4B (11761932_at) / RFU CAPN14 (11732068_a_at) / Fold change /veh CAPN14 (11732068_a_at) / RFU TMCC2 (11721928_a_at) / Fold change /veh TMCC2 (11721928_a_at) / RFU IRGQ (11745062_a_at) / Fold change /veh IRGQ (11745062_a_at) / RFU FAM174B (11720279_a_at) / Fold change /veh FAM174B (11720279_a_at) / RFU TMPRSS4 (11748680_a_at) / Fold change /veh TMPRSS4 (11748680_a_at) / RFU FAM212B (11763350_a_at) / Fold change /veh FAM212B (11763350_a_at) / RFU PLEKHG5 (11743358_a_at) / Fold change /veh PLEKHG5 (11743358_a_at) / RFU ZSCAN30 (11745921_a_at) / Fold change /veh ZSCAN30 (11745921_a_at) / RFU CMKLR1 (11741424_a_at) / Fold change /veh CMKLR1 (11741424_a_at) / RFU LOC101060620 /// MAPK8IP1 (11723275_at) / Fold change /veh LOC101060620 /// MAPK8IP1 (11723275_at) / RFU SPTSSB (11747773_x_at) / Fold change /veh SPTSSB (11747773_x_at) / RFU PRSS12 (11739890_at) / Fold change /veh PRSS12 (11739890_at) / RFU BIN1 (11741810_x_at) / Fold change /veh BIN1 (11741810_x_at) / RFU WNT11 (11732464_a_at) / Fold change /veh WNT11 (11732464_a_at) / RFU C10orf10 (11716521_a_at) / Fold change /veh C10orf10 (11716521_a_at) / RFU C5orf56 (11738089_at) / Fold change /veh C5orf56 (11738089_at) / RFU CYB561 (11721691_x_at) / Fold change /veh CYB561 (11721691_x_at) / RFU ANKRD19P (11752326_a_at) / Fold change /veh ANKRD19P (11752326_a_at) / RFU OR2T12 /// OR2T33 /// OR2T8 (11738714_s_at) / Fold change /veh OR2T12 /// OR2T33 /// OR2T8 (11738714_s_at) / RFU VCAN (11748164_a_at) / Fold change /veh VCAN (11748164_a_at) / RFU JSRP1 (11732532_at) / Fold change /veh JSRP1 (11732532_at) / RFU KRTAP10-11 (11738290_x_at) / Fold change /veh KRTAP10-11 (11738290_x_at) / RFU MYO3A (11730013_a_at) / Fold change /veh MYO3A (11730013_a_at) / RFU EBF3 (11725865_a_at) / Fold change /veh EBF3 (11725865_a_at) / RFU CAMK2N1 (11719241_x_at) / Fold change /veh CAMK2N1 (11719241_x_at) / RFU C5orf56 (11738088_a_at) / Fold change /veh C5orf56 (11738088_a_at) / RFU OLFML3 (11715873_a_at) / Fold change /veh OLFML3 (11715873_a_at) / RFU LOC100653217 /// NTM (11731650_a_at) / Fold change /veh LOC100653217 /// NTM (11731650_a_at) / RFU MAPK11 (11762145_a_at) / Fold change /veh MAPK11 (11762145_a_at) / RFU FIZ1 (11724087_x_at) / Fold change /veh FIZ1 (11724087_x_at) / RFU OASL (11726364_x_at) / Fold change /veh OASL (11726364_x_at) / RFU SOX15 (11748057_x_at) / Fold change /veh SOX15 (11748057_x_at) / RFU CD79A (11719716_a_at) / Fold change /veh CD79A (11719716_a_at) / RFU HIST1H1D (11736915_at) / Fold change /veh HIST1H1D (11736915_at) / RFU CASKIN2 (11723855_a_at) / Fold change /veh CASKIN2 (11723855_a_at) / RFU LOC730098 (11760151_x_at) / Fold change /veh LOC730098 (11760151_x_at) / RFU OR4N2 (11742367_at) / Fold change /veh OR4N2 (11742367_at) / RFU PRRT2 (11749266_a_at) / Fold change /veh PRRT2 (11749266_a_at) / RFU SNX32 (11753110_a_at) / Fold change /veh SNX32 (11753110_a_at) / RFU CDHR5 (11726645_a_at) / Fold change /veh CDHR5 (11726645_a_at) / RFU RCAN1 (11760418_a_at) / Fold change /veh RCAN1 (11760418_a_at) / RFU FAM167A (11723789_a_at) / Fold change /veh FAM167A (11723789_a_at) / RFU FAM26E (11764081_at) / Fold change /veh FAM26E (11764081_at) / RFU ISYNA1 (11749810_s_at) / Fold change /veh ISYNA1 (11749810_s_at) / RFU ACY1 (11761880_at) / Fold change /veh ACY1 (11761880_at) / RFU 11764098_at / Fold change /veh 11764098_at / RFU SAMD14 (11745864_x_at) / Fold change /veh SAMD14 (11745864_x_at) / RFU NPB (11741838_a_at) / Fold change /veh NPB (11741838_a_at) / RFU TMPRSS6 (11731388_a_at) / Fold change /veh TMPRSS6 (11731388_a_at) / RFU KRTAP10-2 (11738614_at) / Fold change /veh KRTAP10-2 (11738614_at) / RFU ARHGAP8 /// PRR5-ARHGAP8 (11727945_x_at) / Fold change /veh ARHGAP8 /// PRR5-ARHGAP8 (11727945_x_at) / RFU KRTAP5-7 /// NADSYN1 (11734609_at) / Fold change /veh KRTAP5-7 /// NADSYN1 (11734609_at) / RFU RASL12 (11751679_a_at) / Fold change /veh RASL12 (11751679_a_at) / RFU CDKN2B (11736163_a_at) / Fold change /veh CDKN2B (11736163_a_at) / RFU PRF1 (11729649_at) / Fold change /veh PRF1 (11729649_at) / RFU, ZNF638 /// ZNF638-IT1 / Fold change vs veh, ZNF638 /// ZNF638-IT1 / RFU, PANK3 / Fold change vs veh, PANK3 / RFU, SH3YL1 / Fold change vs veh, SH3YL1 / RFU, ZEB2 / Fold change vs veh, ZEB2 / RFU, NRIP1 / Fold change vs veh, NRIP1 / RFU, PTTG1IP / Fold change vs veh, PTTG1IP / RFU, CAPN2 / Fold change vs veh, CAPN2 / RFU, MED14 / Fold change vs veh, MED14 / RFU, SNORA58 / Fold change vs veh, SNORA58 / RFU, C1orf63 / Fold change vs veh, C1orf63 / RFU, LRRFIP1 / Fold change vs veh, LRRFIP1 / RFU, NDUFAF7 / Fold change vs veh, NDUFAF7 / RFU, SLC12A2 / Fold change vs veh, SLC12A2 / RFU, IBTK / Fold change vs veh, IBTK / RFU, ESF1 / Fold change vs veh, ESF1 / Fold change vs veh, TMEM50B / RFU, TAOK1 / Fold change vs veh, TAOK1 / RFU, ACBD3 / Fold change vs veh, ACBD3 / RFU, TMA16 / Fold change vs veh, TMA16 / RFU, RWDD3 / Fold change vs veh, RWDD3 / RFU, BCAT1 / Fold change vs veh, BCAT1 / RFU, EDEM3 / Fold change vs veh, EDEM3 / RFU, TMEM33 / Fold change vs veh, TMEM33 / RFU, WDR75 / Fold change vs veh, WDR75 / RFU, AHCTF1 / Fold change vs veh, AHCTF1 / RFU, TFRC / Fold change vs veh, TFRC / RFU, ZDHHC17 / Fold change vs veh, ZDHHC17 / RFU, NOM1 / Fold change vs veh, NOM1 / RFU, ARL8B / Fold change vs veh, ARL8B / RFU, ZBTB11 / Fold change vs veh, ZBTB11 / RFU, TAMM41 / Fold change vs veh, TAMM41 / RFU, KIAA1704 /// LOC100996395 / Fold change vs veh, KIAA1704 /// LOC100996395 / RFU, ING1 / Fold change vs veh, ING1 / RFU, TRMT61B / Fold change vs veh, TRMT61B / RFU, FUBP3 / Fold change vs veh, FUBP3 / RFU, TP53 / Fold change vs veh, TP53 / RFU, TNKS2 / Fold change vs veh, TNKS2 / RFU, ZFP14 / Fold change vs veh, ZFP14 / RFU, ACTR2 / Fold change vs veh, ACTR2 / RFU, PPP3R1 / Fold change vs veh, PPP3R1 / RFU, PIK3R1 / Fold change vs veh, PIK3R1 / RFU, HNRNPA1 / Fold change vs veh, HNRNPA1 / RFU, RNF170 / Fold change vs veh, RNF170 / RFU, ZNF28 / Fold change vs veh, ZNF28 / RFU, RNGTT / Fold change vs veh, RNGTT / RFU, OGT / Fold change vs veh, OGT / RFU, BRD1 / Fold change vs veh, BRD1 / RFU, MARS / Fold change vs veh, MARS / RFU, ZNF655 / Fold change vs veh, ZNF655 / RFU, FAHD1 / Fold change vs veh, FAHD1 / RFU, BDP1 / Fold change vs veh, BDP1 / RFU, LRRCC1 / Fold change vs veh, LRRCC1 / RFU, ARID1A / Fold change vs veh, ARID1A / RFU, ZNF146 / Fold change vs veh, ZNF146 / RFU, ZNF330 / Fold change vs veh, ZNF330 / RFU, GPN3 / Fold change vs veh, GPN3 / RFU, C9orf123 / Fold change vs veh, C9orf123 / RFU, N4BP2L2 / Fold change vs veh, N4BP2L2 / RFU, ARFIP1 / Fold change vs veh, ARFIP1 / RFU, FAM179B / Fold change vs veh, FAM179B / RFU, BCL10 / Fold change vs veh, BCL10 / RFU, UHRF1BP1L / Fold change vs veh, UHRF1BP1L / RFU, BET1 / Fold change vs veh, BET1 / RFU, CNOT2 / Fold change vs veh, CNOT2 / RFU, ZNF268 / Fold change vs veh, ZNF268 / Fold change vs veh, ZNF507 / RFU, DGCR2 / Fold change vs veh, DGCR2 / RFU, WDSUB1 / Fold change vs veh, WDSUB1 / Fold change vs veh, HSP90B1 /// MIR3652 / RFU, ADSS / Fold change vs veh, ADSS / RFU, GK / Fold change vs veh, GK / RFU, ZNF148 / Fold change vs veh, ZNF148 / RFU, TAF9 / Fold change vs veh, TAF9 / RFU, SLC1A5 / Fold change vs veh, SLC1A5 / RFU, SLMO2 / Fold change vs veh, SLMO2 / RFU, ABCC4 / Fold change vs veh, ABCC4 / RFU, LOC101060439 /// RAP1B / Fold change vs veh, LOC101060439 /// RAP1B / RFU, RFX7 / Fold change vs veh, RFX7 / RFU, GTPBP10 / Fold change vs veh, GTPBP10 / RFU, CNEP1R1 / Fold change vs veh, CNEP1R1 / RFU, BIVM-ERCC5 /// ERCC5 / Fold change vs veh, BIVM-ERCC5 /// ERCC5 / RFU, ILF3 / Fold change vs veh, ILF3 / RFU 11762660_at / Fold change /veh 11762660_at / RFU VCAN (11757783_s_at) / Fold change /veh VCAN (11757783_s_at) / RFU DDX43 (11728927_at) / Fold change /veh DDX43 (11728927_at) / RFU KRT8 (11758188_x_at) / Fold change /veh KRT8 (11758188_x_at) / RFU NKD1 (11759106_at) / Fold change /veh NKD1 (11759106_at) / RFU SRD5A1 (11742802_a_at) / Fold change /veh SRD5A1 (11742802_a_at) / RFU TPSAB1 /// TPSB2 (11721975_s_at) / Fold change /veh TPSAB1 /// TPSB2 (11721975_s_at) / RFU GSTM3 (11746129_a_at) / Fold change /veh GSTM3 (11746129_a_at) / RFU IL23R (11737362_x_at) / Fold change /veh IL23R (11737362_x_at) / RFU TMEM51 (11727254_a_at) / Fold change /veh TMEM51 (11727254_a_at) / RFU PIWIL2 (11732686_x_at) / Fold change /veh PIWIL2 (11732686_x_at) / RFU ORM1 (11744905_x_at) / Fold change /veh ORM1 (11744905_x_at) / RFU CCDC152 (11743942_at) / Fold change /veh CCDC152 (11743942_at) / RFU ECM1 (11717891_a_at) / Fold change /veh ECM1 (11717891_a_at) / RFU IL23R (11748794_a_at) / Fold change /veh IL23R (11748794_a_at) / RFU TNFAIP8L3 (11732012_x_at) / Fold change /veh TNFAIP8L3 (11732012_x_at) / RFU MBOAT4 (11741988_at) / Fold change /veh MBOAT4 (11741988_at) / RFU 11764193_at / Fold change /veh 11764193_at / RFU TMEM53 (11763286_at) / Fold change /veh TMEM53 (11763286_at) / RFU MAGEB2 (11727129_at) / Fold change /veh MAGEB2 (11727129_at) / RFU TMEM200A (11744735_a_at) / Fold change /veh TMEM200A (11744735_a_at) / RFU CCDC152 (11751479_a_at) / Fold change /veh CCDC152 (11751479_a_at) / RFU FAM211A (11726209_a_at) / Fold change /veh FAM211A (11726209_a_at) / RFU RGS16 (11746705_a_at) / Fold change /veh RGS16 (11746705_a_at) / RFU VCAN (11755009_s_at) / Fold change /veh VCAN (11755009_s_at) / RFU RHOB (11743442_s_at) / Fold change /veh RHOB (11743442_s_at) / RFU RGS16 (11720943_a_at) / Fold change /veh RGS16 (11720943_a_at) / RFU RGS16 (11720944_at) / Fold change /veh RGS16 (11720944_at) / RFU, VPS4B / Fold change vs veh, VPS4B / RFU, CREB1 / Fold change vs veh, CREB1 / RFU, DNAJC13 / Fold change vs veh, DNAJC13 / RFU, GNAQ / Fold change vs veh, GNAQ / RFU, CDK5R1 / Fold change vs veh, CDK5R1 / RFU, ZRANB3 / Fold change vs veh, ZRANB3 / RFU, CUL4A / Fold change vs veh, CUL4A / RFU, CCNY / Fold change vs veh, CCNY / RFU, UFL1 / Fold change vs veh, UFL1 / RFU, COG3 / Fold change vs veh, COG3 / RFU, DIAPH2 / Fold change vs veh, DIAPH2 / RFU, SKA2 / Fold change vs veh, SKA2 / RFU, AFF3 / Fold change vs veh, AFF3 / RFU, LMF1 / Fold change vs veh, LMF1 / RFU, IPO11 / Fold change vs veh, IPO11 / RFU, DFFB / Fold change vs veh, DFFB / RFU, FOXP1 / Fold change vs veh, FOXP1 / RFU, CARD8 / Fold change vs veh, CARD8 / RFU, STRN3 / Fold change vs veh, STRN3 / RFU, ADK / Fold change vs veh, ADK / RFU, RASSF2 / Fold change vs veh, RASSF2 / RFU, WIPF1 / Fold change vs veh, WIPF1 / RFU, LARP1B / Fold change vs veh, LARP1B / RFU, RASA1 / Fold change vs veh, RASA1 / RFU, RB1 / Fold change vs veh, RB1 / RFU, PPFIA1 / Fold change vs veh, PPFIA1 / RFU, MAT2A / Fold change vs veh, MAT2A / RFU, CCT5 / Fold change vs veh, CCT5 / RFU, WDR92 / Fold change vs veh, WDR92 / RFU, CUX1 / Fold change vs veh, CUX1 / RFU, TTC7A / Fold change vs veh, TTC7A / RFU, TMEM135 / Fold change vs veh, TMEM135 / RFU, DEPTOR / Fold change vs veh, DEPTOR / RFU, CPM / Fold change vs veh, CPM / RFU, DNAJB6 / Fold change vs veh, DNAJB6 / RFU, CACNA2D3 / Fold change vs veh, CACNA2D3 / RFU, DTX4 / Fold change vs veh, DTX4 / RFU, TFCP2 / Fold change vs veh, TFCP2 / RFU, GMCL1 /// GMCL1P1 / Fold change vs veh, GMCL1 /// GMCL1P1 / RFU, AEBP2 / Fold change vs veh, AEBP2 / RFU, SNHG1 /// SNORD22 /// SNORD25 /// SNORD26 /// SNORD27 /// SNORD28 /// SNORD29 /// SNORD31 / Fold change vs veh, SNHG1 /// SNORD22 /// SNORD25 /// SNORD26 /// SNORD27 /// SNORD28 /// SNORD29 /// SNORD31 / Fold change (Aza/veh), C12orf56 (ProbeSet 11735607_a_at) / Fold change (ACY-1035/veh), C12orf56 (ProbeSet 11735607_a_at) / Fold change (Aza/veh), FGFR1OP (ProbeSet 11751329_s_at) / Fold change (ACY-1035/veh), FGFR1OP (ProbeSet 11751329_s_at) / Fold change (Aza/veh), VPS36 (ProbeSet 11739960_a_at) / Fold change (ACY-1035/veh), VPS36 (ProbeSet 11739960_a_at) / RFU SYPL1 (11715823_x_at) / Fold change /veh SYPL1 (11715823_x_at) / RFU IGFBP7 (11715501_s_at) / Fold change /veh IGFBP7 (11715501_s_at) / RFU REEP3 (11722064_at) / Fold change /veh REEP3 (11722064_at) / RFU IGLL1 (11728026_x_at) / Fold change /veh IGLL1 (11728026_x_at): dose or concentration left out as unconfirmed
Conditions: MV-4-11 cells, 48 hours

With `Nc1ncn([C@@H]2O[C@H](CO)[C@@H](O)[C@H]2O)c(=O)n1` [azacitidine] the “RFU FAM167A (11723789_a_at)” value was 38.83 RFU.
